Like-named read-outs stand apart in the source and are kept apart here.
Test system: PC-3 cells
Assay: SRB assay, anti-proliferative effect
Assay type: cell-based
Settings: Homo sapiens
Description: Two castration-resistant prostate cancer (CRPC) cell lines of PC-3 and DU-145 were cultured in RPMI 1640 medium with 5% FBS (v/v), penicillin (100 units/ml) and streptomycin (100 μg/ml). Cultures were maintained in a 37° C. incubator with 5% CO2, and adherent cultures were passaged using 0.05% trypsin-EDTA when they reached about 80% confluence. Prostate cells were from human tissue samples which were obtained following informed consent of the donors and after full review by the Ethics Review Committee at National Taiwan University Hospital. The prostate specimens were from males by transurethral resection of the prostate. All patients with prostatism histories were diagnosed to have benign prostate hyperplasia by rectal digital examination, transrectal sonography of prostate and urodynamic studies. Isolation of human prostatic cells from prostatic tissue explants was described in the previous study. The prostate cells were with less amount lipid rafts compared to prostate cancer cells.
SRB assay, colonogenic assay, and carboxyfluorescein succinimidyl ester (CFSE) staining were used for anti-proliferative determination. SRB assay is an accurate and reproducible assay based upon quantitative SRB staining of cellular proteins, and the process for SRB assay was performed as follows. Each individual PC-3 and DU-145 cells were seeded in 96-well plates in medium with 10% FBS. After 24 h, PC-3 and DU-145 cells were fixed with 10% TCA to represent cell population at the time of p-TSA addition. […] The absorbance of SRB was measured at a wavelength of 515 nm at the time of p-TSA addition (hereinafter referred to as time zero, TZ), and after additional incubation of DMSO (hereinafter referred to as control growth, CTL) or p-TSA (hereinafter referred to as Tx). The percentage of cell growth inhibition was calculated by the formula of [1−(Tx−TZ)/(CTL−TZ)]×100%. […]
To further substantiate the role of Akt, the Myr-Akt overexpressed PC-3 cells were prepared with the method shown as follows. […] Furthermore, the functional rescue of Myr-Akt was determined. […]

IC50 (PC-3, 48 h, PC-3 overexpressing constitutively active Myr-Akt, 48 hours, FIG. 4E, read-out: IC50, growth inhibition, SRB assay): 2180 ± 100 µM
IC50 (PC-3, 48 h, PC-3 without Myr-Akt overexpression, 48 hours, FIG. 4E, read-out: IC50, growth inhibition, SRB assay): 1970 ± 10 µM
IC50 (PC-3, PC-3, SRB assay, FIG. 1A, read-out: IC50, inhibition of cell growth): ~3000 µM
SMILES: Cc1ccc(S(N)(=O)=O)cc1 [p-TSA, para-toluenesulfonamide]

From patent US20200338028A1, “BENZENESULFONAMIDE DERIVATIVES AND METHOD FOR MODULATING LIPID RAFT” (Gongwin Biopharm Co., Ltd., priority 2017, published 2020)
